From paper PMC13229503, “Dissecting mechanisms of ligand binding and conformational changes in the glutamine-binding protein” (eLife, 2026)
Read-outs that look alike come from different tables or passages of the source.

Key:
GlnBP [1] = details: cited from earlier work
GlnBP [2] = system: GlnBP; design: method as in Berntsson et al., 2010; details: numerical fits of stopped-flow relaxation curves, Gln:GlnBP 1:1 and 2:1; ref Berntsson et al., 2010; cited from earlier work
GlnBP(111 C-192C) [3] = target: T1, GlnBP(111 C-192C) (Escherichia coli, UniProt P0AEQ3, G214C/V133C); test: Diffusion-based smFRET (µsALEX) ligand titration of doubly-labeled GlnBP(111C-192C); format: binding; details: millimolar ligand, GlnBP(111C-192C) and GlnBP(59C-130C), AF555/AF647
T1 construct: made in house; host or cells: E. coli BL21-pLysS
T1 sequence (P0AEQ3 23-248 V133C/G214C): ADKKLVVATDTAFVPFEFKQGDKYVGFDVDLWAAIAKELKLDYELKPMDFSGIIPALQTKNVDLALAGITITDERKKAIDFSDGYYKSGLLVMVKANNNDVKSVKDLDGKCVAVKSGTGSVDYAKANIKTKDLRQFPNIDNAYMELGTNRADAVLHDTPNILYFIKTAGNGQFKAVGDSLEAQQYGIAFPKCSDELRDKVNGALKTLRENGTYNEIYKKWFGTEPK
Method: The refolded GlnBP(111 C-192C) and GlnBP(59 C-130C) variants were labeled with commercial maleimide derivatives of AF555/AF647 or ATTO 532/ATTO 643 ([Gebhardt et al., 2021]), and then purified by SEC. […] First, the His-tagged protein was incubated in 10 mM DTT in PBS buffer for 30 min to reduce all oxidized cysteine residues. Subsequently, the protein was diluted 10 times with PBS buffer and immobilized on a Nickel Sepharose 6 Fast Flow resin (GE Healthcare). The resin was washed extensively with milliQ water followed by PBS buffer pH 7.4. To remove the excess of DTT, the resin was washed with PBS buffer. […]
Single-molecule μsALEX experiments were carried out at room temperature on a custom-built confocal microscope. […] In general, the 532 and 640 nm diode lasers operated at 60 and 25 μW, respectively (measured at the back aperture of the objective), unless stated otherwise. Fluorescence light was collected by the same objective, focused onto a 50 μm pinhole and separated into two spectral channels (donor and acceptor fluorescence) by a dichroic beamsplitter (H643 LPXR, AHF, Germany). Fluorescence emission was collected by two avalanche photodiodes (SPCM-AQRH-64, Excelitas) after additional filtering (donor channel: BrightLine HC 582/75 and acceptor channel: Longpass 647 LP Edge Basic, both from Semrock, USA). […]

GlnBP(111 C-192C) [4] = target: T1, GlnBP(111 C-192C); test: ITC of ligand binding to refolded, unlabeled GlnBP(111C-192C)
Method: (§1) The ITC measurements were performed in a MicroCal PEAQ-ITC isothermal titration calorimeter (Malvern Instruments). The prediction ITC software ‘MicroCal PEAQ-ITC Control’ was employed for designing and conducting the experiments. Once the Kd value and the binding stoichiometry (N) were assigned as predefined values, the concentration of both the protein and the titrant (ligand) stock solutions could be calculated by the ‘design-experiment’ function on the software to get an optimal sigmoidal one-site binding curve. GlnBP concentration was assessed using the Nanophotometer (N60 Touch, Implen GmbH) with at least three reading repeats to get accurate determinations of concentration values. For all ITC measurements, the temperature was set at 25 °C with stirring speed at 750 rev/min. The GlnBPs solution (10 μM in PBS buffer pH 7.4, 300 μL) was manually loaded into the sample cell. The titrant (L-glutamine, 100 μM in PBS buffer, pH 7.4) was automatically loaded into the titration syringe and injected in the sample cell with a titration speed of 2 μL every 150 s and a total of 19 injections. As a control experiment, L-glutamine was titrated into the sample cell containing PBS buffer without GlnBPs. All the titration data were analyzed using the MicroCal PEAQ-ITC Analysis Software.

GlnBP(59 C-130C) = target: T2, GlnBP(59 C-130C) (Escherichia coli, UniProt P0AEQ3, T152C/T81C); test: ITC of ligand binding to refolded, unlabeled GlnBP(59C-130C)
T2 construct: made in house; host or cells: E. coli BL21-pLysS
T2 sequence (P0AEQ3 23-248 T81C/T152C): as the sequence (P0AEQ3 23-248 V133C/G214C) above, with T59C, C111V, T130C, C192G counted along it
Method: as §1

For `NC(=O)CC[C@H](N)C(=O)O` [L-glutamine], the affinity (GlnBP [1]; L-glutamine, ref Pistolesi and Tjandra, 2012, Su et al., 2007) is given as “sub-micromolar affinity” and the effective on-rate constant (GlnBP [2]) is given as “about 10^8 M^–1s^–1”.
With `N=C(N)NCCC[C@H](N)C(=O)O` [L-Arginine] the “ligand-induced FRET shift (conformational change)” value (GlnBP(111 C-192C) [3]) was “hardly any FRET shifts”, the Kd (GlnBP(111 C-192C) [4]) was 421 ± 292 µM and the Kd (GlnBP(59 C-130C)) was 737 ± 133 µM. The affinity (GlnBP [1]; arginine, ref Chen et al., 2020) was “millimolar affinity”.
